Measurements as given in patent US7303887B2, “Mule: Mcl-1 ubiquitination ligase E3” (Board of Regents, The University of Texas System, priority 2005, dated 2007).
Ends that are not written are not given here. Peptide text beside a SMILES is read from it. * marks the point of attachment. Cbz = O=C(OCc1ccccc1)*

Tests used:
Mule (Homo sapiens) = molecular target: T1, Mule (Homo sapiens); assay: In vitro Mcl-1 ubiquitination assay, reconstituted system, competition by BH3 peptides; format: biochemical; conditions: peptide at 4 μM
T1 construct: The cDNA of full-length human Mule was subcloned into Sal I and Not I sites of pFastBac-1; made in house; host or cells: Sf21 insect cells, baculovirus (pFastBac-1)
T1 sequence (Q07820 whole entry): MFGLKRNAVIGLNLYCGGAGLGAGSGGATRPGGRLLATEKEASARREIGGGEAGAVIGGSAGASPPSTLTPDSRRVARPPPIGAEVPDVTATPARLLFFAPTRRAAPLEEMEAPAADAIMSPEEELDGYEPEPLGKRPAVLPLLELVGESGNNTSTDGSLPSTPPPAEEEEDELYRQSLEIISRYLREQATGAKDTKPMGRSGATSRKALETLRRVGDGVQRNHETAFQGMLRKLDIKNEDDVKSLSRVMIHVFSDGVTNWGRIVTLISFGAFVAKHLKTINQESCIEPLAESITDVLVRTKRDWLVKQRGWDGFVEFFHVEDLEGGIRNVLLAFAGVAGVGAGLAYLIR
Description: (§1) In vitro Ubiguitination assay: In 15 ul reaction, 200 ng of recombinant Flag-Mcl-1 is incubated with an ATP regenerating system (50 mM Tris pH 7.6, 5 mM MgCl2, 2 mM ATP, 10 mM creatine phosphate, 3.5 U/ml of creatine kinase), 10 μg of Methyl-Ubiquitin, 10 ng human E1, 100 ng Ubch7, 2 μM of ubiquitin aldehyde, and 10 μg of S100 or designated fractions, at 37° C. for one hour. After terminating the reactions with SDS sample buffer, reaction products were fractionated by SDS-PAGE (10%) and analyzed by western blotting with anti-Flag M2 antibody during purification and anti-Mcl-1 when purified components were used.
We used methylated ubiquitin for further biochemical analysis because it gave clearer signal. Mule ubiquitinated Mcl-1 in a dose-dependent manner, and the ubiquitination activity relied on the presence of E1 and E2.
The members of Bcl-2 family of proteins containing only the BH3 domain use this domain to interact with other family members. If Mule also uses its BH3 domain to interact with Mcl-1, a peptide containing this domain should compete for Mule-Mcl-1 interaction therefore blocking Mcl-1 ubiquitination in the reconstituted system. To test this hypothesis, we synthesized a 26 amino acid Mule BH3-containing peptide and a mutant peptide in which four hydrophobic residues required for protein-protein interaction were switched with […] (4E).

Bax = molecular target: T2, Bax (Homo sapiens, UniProt Q07812); assay: Biotin-labeled BH3 peptide pull down from HeLa S100; format: binding
T2 construct: endogenous in cells; host or cells: HeLa S100
T2 sequence (Q07812 whole entry): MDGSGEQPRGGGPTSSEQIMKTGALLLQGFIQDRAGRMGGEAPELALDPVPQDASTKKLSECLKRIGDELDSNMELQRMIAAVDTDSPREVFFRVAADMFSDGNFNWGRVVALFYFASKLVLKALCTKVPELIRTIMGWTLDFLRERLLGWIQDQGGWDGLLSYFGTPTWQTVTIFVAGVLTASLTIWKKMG
Source text: (§2) To examine whether BH3 domain of Mule is sufficient for interaction with Mcl-1, we used a biotin-labeled version of the 26 amino acids Mule BH3 peptide (aa 1969-1994) and the 4E mutant to pull down proteins from cell extracts.

Bcl-2 = molecular target: T3, Bcl-2 (Homo sapiens, UniProt P10415); assay: as above; format: binding
T3 construct: endogenous in cells; host or cells: HeLa S100
T3 sequence (P10415 whole entry): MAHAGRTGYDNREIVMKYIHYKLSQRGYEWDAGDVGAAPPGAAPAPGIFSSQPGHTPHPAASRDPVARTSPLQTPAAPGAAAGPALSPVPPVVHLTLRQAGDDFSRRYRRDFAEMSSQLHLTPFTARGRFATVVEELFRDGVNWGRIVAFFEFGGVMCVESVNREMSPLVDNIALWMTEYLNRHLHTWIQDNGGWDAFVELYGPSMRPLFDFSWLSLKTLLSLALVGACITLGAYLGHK
Source text: as §2

Bcl-xL = molecular target: T4, Bcl-xL (Homo sapiens, UniProt Q07817); assay: as above; format: binding
T4 construct: endogenous in cells; host or cells: HeLa S100
T4 sequence (Q07817 whole entry): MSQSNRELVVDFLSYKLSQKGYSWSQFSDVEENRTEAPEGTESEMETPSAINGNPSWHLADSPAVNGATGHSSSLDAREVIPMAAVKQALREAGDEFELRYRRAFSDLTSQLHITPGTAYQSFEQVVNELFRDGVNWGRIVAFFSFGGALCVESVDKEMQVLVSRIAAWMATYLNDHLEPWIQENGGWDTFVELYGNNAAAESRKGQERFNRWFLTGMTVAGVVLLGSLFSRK
Source text: as §2

Mcl-1 [1] = molecular target: T5, Mcl-1 (Homo sapiens, UniProt Q07820); assay: as above; format: binding; set-up: endogenous in cells; host or cells: HeLa S100
T5 sequence (Q07820 whole entry): as the sequence (Q07820 whole entry) above
Source text: as §2

U2OS cells [2] = assay: Cell death induced by DNA damaging agents with Mule knocked down; format: cell-based, human; conditions: for cell death induced by the agent: Mule knocked down versus not
Description: The Mule shRNA construct was co-transfected with tetracycline repressor expression construct into 5×10^5 attached U2OS cells grown in DMEM with 10% FBS using Lipofectamine transfection reagent (Invitrogen) according to the manufacturer's protocol. One day later, the cells were selected against 1 μg/ml blasticidine and 2 μg/ml puromycin. After two weeks, individual clones were lifted and tested for expression of tetracycline repressor. Positive clones were further tested for Mule shRNA expression. Clones were treated with 2 μg/ml tetracycline for 3 days. Cell extracts were collected and subjected to 6% SDS-PAGE and western blotting with anti-Mule monoclonal antibody. Clones with the best inducible knock down of Mule were chosen for further experiments. […] We then treated cells with their Mule level knocked down with several DNA damaging agents including UV-irradiation and two commonly used chemotherapeutic drugs etoposide and cisplatin. […] We therefore performed a detailed biochemical analysis in cells treated with this drug with or without Mule knocked down.

caspase-3 = assay: Caspase-3 activation (cleavage) and PARP cleavage after cisplatin treatment; format: cell-based, human
Source text: We then treated cells with their Mule level knocked down with several DNA damaging agents including UV-irradiation and two commonly used chemotherapeutic drugs etoposide and cisplatin. […] We therefore performed a detailed biochemical analysis in cells treated with this drug with or without Mule knocked down.

U2OS cells [3] = assay: Colony growth 8 days after 6 hours of cisplatin treatment; format: cell-based, human; conditions: 6 hours treatment, 8 days culture
Description: To test whether the delayed apoptosis when Mule was knocked down has a long last effect, cells were switched to fresh medium after 6 hours of cisplatin treatment and continued culture for 8 days.

proteasome = assay: Western blotting for Mcl-1 in Hela cells treated with proteasome inhibitor; format: cell-based, human; conditions: anti-Mcl-1 western blotting
Source text: Proteins targeted for proteasome degradation are usually modified by a poly-ubiquitin chain (Hershko and Ciechanover, 1998). To test whether Mcl-1 is ubiquitinated, we treated Hela cells with a proteasome inhibitor MG132 to block the proteasome activity and performed western blotting analysis for Mcl-1 to test for the accumulation of higher molecular weight forms that could be ubiquitin modified. […] To verify these higher molecular weight bands were indeed caused by polyubiquitin conjugation of Mcl-1, the protein was immunoprecipitated by an anti-Mcl-1 antibody and the immuno-precipitate was probed by an anti-ubiquitin antibody.

Mcl-1 and Mule = assay: Co-immunoprecipitation of Mule with Flag-Mcl-1 from Flag-Mcl-1 expressing cells; format: cell-based; conditions: anti-Flag immunoprecipitation
Source text: We next tested whether Mule interacts with Mcl-1 in vivo. Cell extracts from Flag-Mcl-1 expressing cells were immunoprecipitated with an anti-Flag monoclonal antibody. The immunoprecipitates were then subjected to SDS-PAGE and immunoblotted with antibodies against Flag or Mule. The antibody against Flag precipitated Flag-Mcl-1 in Flag-Mcl-1 expressing cells but not in the control cells. The Flag antibody also precipitated Mule, and the amount of co-precipitated Mcl-1 and Mule increased upon treatment with the proteasome inhibitor MG132.

Mcl-1 [4] = molecular target: T5, Mcl-1; assay: In vitro Mcl-1 ubiquitination by purified recombinant Mule; format: biochemical; conditions: in the presence of E1, Ubch7 (E2), ATP regenerating system; ubiquitin, methylated or GST-tagged ubiquitin
Description: as §1
The cDNA of full-length human Mule was subcloned into Sal I and Not I sites of pFastBac-1 (Invitrogen). Mule expression baculovirus were prepared according to manufacture's manual (Bac-to-Bac Baculovirus expression system, Invitrogen, Carlsbad, Calif.). Insect cells Sf21 were infected with the P3 virus. The cells were harvested after 2 days of infection. Cell pellet was re-suspended in buffer A and homogenized with a glass douncer (pellet of 1 L culture of infected Sf21 cells was resuspended in 50 ml of buffer A). The homogenate was centrifuged at 100,000 g (SW28 rotor, 25,000 rpm) for 1 hr. The S100 (2 g total protein) were filtered and loaded onto Q column (hand-packed 36 ml of Q Sepharose XL beads). […]

## Mule BH3 peptide: synthesized 26 amino acid Mule BH3-containing peptide (aa 1969-1994); biotin-labeled version used for pull down (PGVMTQEVGQLLQDMGDDVYQQYRSL; also: biotin-labeled (position not given here); UniProt Q7Z6Z7 1969-1994, looked up, fragment)
Mule (Homo sapiens)
  block of Mcl-1 ubiquitination: efficiently block Mcl-1 ubiquitination
Bax
  pull down of Bax: not Bcl-xL, Bcl-2, and Bax
Bcl-2
  pull down of Bcl-2: not Bcl-xL, Bcl-2, and Bax
Bcl-xL
  pull down of Bcl-xL: not Bcl-xL, Bcl-2, and Bax
Mcl-1 [1]
  pull down of Mcl-1: specifically pulled down Mcl-1

## N.N.[Cl][Pt][Cl] [cisplatin]
U2OS cells [2]; Mule knocked down
  ability to induce apoptosis among the DNA damaging agents: least ability to induce apoptosis
U2OS cells [2]
  cell death induced by the agent: reduced when Mule was knocked down
caspase-3; Mule knocked down
  start of (weak) caspase-3 activation after treatment: 8 h
caspase-3; Mule knocked down, 6 hours after treatment
  caspase-3 activation: did not see any caspase-3 activation
caspase-3; cells with Mule present
  start of caspase-3 activation after treatment: 4 h
caspase-3; with or without Mule knocked down
  cleavage of PARP: showed the same pattern
U2OS cells [3]; Mule knocked down
  colonies relative to cells containing Mule: more than nine fold more colonies
U2OS cells [3]; cells containing Mule
  colonies grown up: few if any colonies

## CC(C)C[C@@H](C=O)NC(=O)[C@H](CC(C)C)NC(=O)[C@H](CC(C)C)NC(=O)OCc1ccccc1 [MG132] (Cbz-Leu-Leu-Leu-aldehyde)
proteasome
  accumulation of higher molecular weight (polyubiquitinated) forms of Mcl-1: Higher molecular weight protein bands were detected
Mcl-1 and Mule
  amount of co-precipitated Mcl-1 and Mule: increased

## COc1cc([C@@H]2c3cc4c(cc3[C@@H](O[C@@H]3O[C@@H]5CO[C@@H](C)O[C@H]5[C@H](O)[C@H]3O)[C@H]3COC(=O)[C@H]23)OCO4)cc(OC)c1O [etoposide]
U2OS cells [2]
  cell death induced by the agent: reduced when Mule was knocked down

## recombinant Mule: purified recombinant full-length human Mule protein, baculovirus-based expression system; Mcl-1 ubiquitin ligase E3
Mcl-1 [4]
  stimulation of Mcl-1 ubiquitination: able to stimulate Mcl-1 ubiquitination
